Results reported in patent US10988478B1, “Pyrazolo[1,5a]pyrimidine derivatives as IRAK4 modulators” (Genentech, Inc., priority 2015, dated 2021).

Biological target: human IRAK4 (Homo sapiens (Human), UniProt Q9NWZ3)
Assay: IRAK4 kinase inhibition, Transcreener fluorescence polarization ADP assay
Type: biochemical
Conditions: recombinant full-length His6-IRAK4; 125 uM ATP; 90 min; Ki computed using ATP Km 642 uM
Description: Compounds were assayed for inhibition of human IRAK4 and IRAK1 catalytic activity using recombinant enzyme produced from insect cells. Full-length IRAK4 protein, carrying an N-terminal His6-Tag, was obtained from Life Technologies (Carlsbad, Calif., USA). The IRAK1 construct was produced internally and was comprised of IRAK1 residues Arg194 to Ser712, preceded by an NH2-terminal His6 tag and the coding sequence for glutathione-S-transferase.

Chain of human IRAK4 (Q9NWZ3 whole entry): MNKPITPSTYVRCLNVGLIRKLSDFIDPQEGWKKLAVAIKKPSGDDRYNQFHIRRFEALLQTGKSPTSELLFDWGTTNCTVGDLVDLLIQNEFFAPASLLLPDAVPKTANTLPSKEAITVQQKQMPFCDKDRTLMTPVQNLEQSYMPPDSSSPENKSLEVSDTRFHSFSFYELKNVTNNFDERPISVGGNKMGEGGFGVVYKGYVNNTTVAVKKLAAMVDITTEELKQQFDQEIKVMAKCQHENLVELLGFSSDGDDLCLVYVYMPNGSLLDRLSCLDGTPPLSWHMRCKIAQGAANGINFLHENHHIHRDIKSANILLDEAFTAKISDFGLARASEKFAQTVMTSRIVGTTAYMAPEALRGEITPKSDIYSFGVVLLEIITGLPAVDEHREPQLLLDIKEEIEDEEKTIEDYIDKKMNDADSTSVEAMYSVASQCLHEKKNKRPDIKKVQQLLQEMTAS

| Ki [nM] | Compound |
| --- | --- |
| 2.8 | C[C@@]1(CO)Cc2cc(NC(=O)c3cnn4cc(Cl)cnc34)c(N3CCC(CO)CC3)cc2O1 [Example 164, (S)-6-Chloro-N-(2-(hydroxymethyl)-6-(4-(hydroxymethyl)piperidin-1-yl)-2-methyl-2,3-dihydrobenzofuran-5-yl)pyrazolo[1,5-a]pyrimidine-3-carboxamide] |
| 20 | N#CCN1Cc2cc(NC(=O)c3cnn4cccnc34)c(N3CCOCC3)cc2C1=O [Example 253, N-(2-(Cyanomethyl)-6-morpholino-1-oxoisoindolin-5-yl)pyrazolo[1,5-a]pyrimidine-3-carboxamide] |
| 17 | CC(=O)c1cnc2c(C(=O)Nc3cc4c(cc3N3CCOCC3)O[C@@](C)(CO)C4)cnn2c1 [Example 85, (R)-6-Acetyl-N-(2-(hydroxymethyl)-2-methyl-6-morpholino-2,3-dihydrobenzofuran-5-yl)pyrazolo[1,5-a]pyrimidine-3-carboxamide] |
| 38 | CC1(C)Cc2cc(NC(=O)c3cnn4cccnc34)c(N3CCN4CCC[C@@H]4C3)cc2O1 [Example 443, (R)-N-(6-(hexahydropyrrolo[1,2-a]pyrazin-2(1H)-yl)-2,2-dimethyl-2,3-dihydrobenzofuran-5-yl)pyrazolo[1,5-a]pyrimidine-3-carboxamide] |
| 2.3 | CC1(C)Cc2cc(NC(=O)c3cnn4cccnc34)c(N3CCN(CC(F)F)CC3)cc2O1 [Example 8, N-[6-[4-(2,2-Difluoroethyl)piperazin-1-yl]-2,2-dimethyl-3H-benzofuran-5-yl]pyrazolo[1,5-a]pyrimidine-3-carboxamide] |
| 7 | CC1(C)Cc2cc(NC(=O)c3cnn4cccnc34)c(OCC3CC3)cc2O1 [Example 298, N-(6-(Cyclopropylmethoxy)-2,2-dimethyl-2,3-dihydrobenzofuran-5-yl)pyrazolo[1,5-α]pyrimidine-3-carboxamide] |
| 99 | CC1(C)Cc2cc(NC(=O)c3cnn4cccnc34)c(N3CCN(CC4CCC4)CC3)cc2O1 [Example 466, N-(6-(4-(cyclobutylmethyl)piperazin-1-yl)-2,2-dimethyl-2,3-dihydrobenzofuran-5-yl)pyrazolo[1,5-a]pyrimidine-3-carboxamide] |
| 35 | CC1(CO)Cc2cc(NC(=O)c3cnn4cccnc34)c(N3CC4C(CO)C4C3)cc2O1 (stereo not shown) [Example 322, N-(2-(hydroxymethyl)-6-(6-(hydroxymethyl)-3-azabicyclo[3.1.0]hexan-3-yl)-2-methyl-2,3-dihydrobenzofuran-5-yl)pyrazolo[1,5-a]pyrimidine-3-carboxamide] |
| 63 | CC(C)(O)CN1Cc2cc(NC(=O)c3cnn4cccnc34)c(N3CCOCC3)cc2S1(=O)=O [Example 288, N-[2-(2-Hydroxy-2-methyl-propyl)-6-morpholino-1,1-dioxo-3H-1,2-benzothiazol-5-yl]pyrazolo[1,5-a]pyrimidine-3-carboxamide] |
| 1.9 | Cc1cnc2c(C(=O)Nc3cc4c(cc3N3CCC(CO)CC3)OC(C)(CO)C4)cnn2c1 (stereo not shown) [Example 16, N-(2-(Hydroxymethyl)-6-(4-(hydroxymethyl)piperidin-1-yl)-2-methyl-2,3-dihydrobenzofuran-5-yl)-6-methylpyrazolo[1,5-a]pyrimidine-3-carboxamide] |
| 18 | C[C@]1(CO)Cc2cc(NC(=O)c3cnn4cc(Cl)cnc34)c(N3CCOCC3)cc2O1 (single isomer, unassigned) [Example 166] |
| 2 | CC(C)(O)[C@H](F)CN1Cc2cc(NC(=O)c3cnn4cccnc34)c(N3CCC([C@H](O)C(F)(F)F)CC3)cc2C1=O (single isomer, unassigned) [Example 259] |
| 43 | CC1(C)Cc2cc(NC(=O)c3cnn4cccnc34)c(C3CCN(CC(F)(F)F)CC3)cc2O1 [Example 90, N-[2,2-Dimethyl-6-[1-(2,2,2-trifluoroethyl)-4-piperidyl]-3H-benzofuran-5-yl]pyrazolo[1,5-a]pyrimidine-3-carboxamide] |
| 46 | CN1CCC2(CC1)Cc1cc(NC(=O)c3cnn4cccnc34)c(N3CCN(CC(=O)NC4CC4)CC3)cc1O2 [Example 376, N-(6-(4-(2-(Cyclopropylamino)-2-oxoethyl)piperazin-1-yl)-1′-methyl-3H-spiro[benzofuran-2,4′-piperidin]-5-yl)pyrazolo[1,5-a]pyrimidine-3-carboxamide] |
| 17 | CC1(C)Cc2cc(NC(=O)c3cnn4cccnc34)c(N3CCCOCC3)cc2O1 [Example 117, N-(2,2-dimethyl-6-(1,4-oxazepan-4-yl)-2,3-dihydrobenzofuran-5-yl)pyrazolo[1,5-a]pyrimidine-3-carboxamide] |
| 6.6 | CC1(C)Cc2cc(NC(=O)c3cnn4cccnc34)c(N3CCN(CCO)CC3)cc2O1 [Example 60, N-[6-[4-(2-Hydroxyethyl)piperazin-1-yl]-2,2-dimethyl-3H-benzofuran-5-yl]pyrazolo[1,5-a]pyrimidine-3-carboxamide] |

| Ki [nM] | Compound |
| --- | --- |
| 3.1 | CC1(C#N)CCN(c2cc3c(cc2NC(=O)c2cnn4cccnc24)CN(C[C@@H](F)C(C)(C)O)C3=O)CC1 [Example 569, N-[6-(4-Cyano-4-methyl-1-piperidyl)-2-[(2R)-2-fluoro-3-hydroxy-3-methyl-butyl]-1-oxo-isoindolin-5-yl]pyrazolo[1,5-a]pyrimidine-3-carboxamide] |
| 13 | CC1(C)Cc2cc(NC(=O)c3cnn4cccnc34)c(N3CCCC(F)(F)C3)cc2O1 [Example 196, N-(6-(3,3-difluoropiperidin-1-yl)-2,2-dimethyl-2,3-dihydrobenzofuran-5-yl)pyrazolo[1,5-a]pyrimidine-3-carboxamide] |
| 16 | O=C(Nc1cc2c(cc1N1CCOCC1)C(=O)N(CC1CCCCO1)C2)c1cnn2cccnc12 (single isomer, unassigned) [Example 277, N-(6-morpholino-1-oxo-2-((tetrahydro-2H-pyran-2-yl)methyl)isoindolin-5-yl)pyrazolo[1,5-a]pyrimidine-3-carboxamide] |
| 4.4 | C[C@@]1(CO)Cc2cc(NC(=O)c3cnn4cccnc34)c(N3CCC(F)(F)C3)cc2O1 [Example 67, N-[(2S)-6-(3,3-Difluoropyrrolidin-1-yl)-2-(hydroxymethyl)-2-methyl-3H-benzofuran-5-yl]pyrazolo[1,5-a]pyrimidine-3-carboxamide] |
| 9.6 | C[C@@]1(C(F)F)Cc2cc(NC(=O)c3cnn4cccnc34)c(N3CCOCC3)cc2O1 [Example 51, (S)—N-(2-(Difluoromethyl)-2-methyl-6-morpholino-2,3-dihydrobenzofuran-5-yl)pyrazolo[1,5-a]pyrimidine-3-carboxamide] |
| 6.2 | C[C@]1(CO)Cc2cc(NC(=O)c3cnn4cccnc34)c(N3CCC([C@](C)(O)C(F)(F)F)CC3)cc2O1 [Example 410, N—((R)-2-(hydroxymethyl)-2-methyl-6-(4-((S)-1,1,1-trifluoro-2-hydroxypropan-2-yl)piperidin-1-yl)-2,3-dihydrobenzofuran-5-yl)pyrazolo[1,5-a]pyrimidine-3-carboxamide] |
| 340 | CNC(=O)C1CC1c1cc2c(cc1NC(=O)c1cnn3cccnc13)CC(C)(C)O2 (stereo not shown) [Example 395, N-(2,2-dimethyl-6-(2-(methylcarbamoyl)cyclopropyl)-2,3-dihydrobenzofuran-5-yl)pyrazolo[1,5-a]pyrimidine-3-carboxamide] |
| 10 | C[C@]1(CO)Cc2cc(NC(=O)c3cnn4cccnc34)c(OCC(F)F)cc2O1 [Example 311, (R)-N-(6-(2,2-difluoroethoxy)-2-(hydroxymethyl)-2-methyl-2,3-dihydrobenzofuran-5-yl)pyrazolo[1,5-a]pyrimidine-3-carboxamide] |
| 2 | NC(=O)CN1CCN(c2cc3c(cc2NC(=O)c2cnn4cccnc24)CN(C2CCOCC2)C3=O)CC1 [Example 177, N-[6-[4-(2-amino-2-oxo-ethyl)piperazin-1-yl]-1-oxo-2-tetrahydropyran-4-yl-isoindolin-5-yl]pyrazolo[1,5-a]pyrimidine-3-carboxamide] |
| 0.61 | CC(C)(O)[C@H](F)CN1Cc2cc(NC(=O)c3cnn4cccnc34)c(C3CC3)cc2C1=O [Example 487, N-[6-Cyclopropyl-2-[(2R)-2-fluoro-3-hydroxy-3-methyl-butyl]-1-oxo-isoindolin-5-yl]pyrazolo[1,5-a]pyrimidine-3-carboxamide] |
| 55 | CN(C)C(=O)[C@]1(C)Cc2cc(NC(=O)c3cnn4cccnc34)c(N3CCOCC3)cc2O1 [Example 438, (S)—N-(2-(dimethylcarbamoyl)-2-methyl-6-morpholino-2,3-dihydrobenzofuran-5-yl)pyrazolo[1,5-a]pyrimidine-3-carboxamide] |
| 750 | C[C@]1(CO)Cc2cc(NC(=O)c3cnn4cccnc34)c(C(F)F)cc2O1 [Example 74, N-[(2R)-6-(difluoromethyl)-2-(hydroxymethyl)-2-methyl-3H-benzofuran-5-yl]pyrazolo[1,5-a]pyrimidine-3-carboxamide] |
| 2 | Cc1cnc2c(C(=O)Nc3cc4c(cc3N3CCOCC3)C(=O)N(C[C@@H](F)C(C)(C)O)C4)cnn2c1 [Example 264, N-[2-[(2R)-2-Fluoro-3-hydroxy-3-methyl-butyl]-6-morpholino-1-oxo-isoindolin-5-yl]-6-methyl-pyrazolo[1,5-a]pyrimidine-3-carboxamide] |
| 2.8 | C[C@]1(CO)Cc2cc(NC(=O)c3cnn4cccnc34)c(N3CCN(CC(F)F)CC3)cc2O1 [Example 98, N-[(2R)-6-[4-(2,2-Difluoroethyl)piperazin-1-yl]-2-(hydroxymethyl)-2-methyl-3H-benzofuran-5-yl]pyrazolo[1,5-a]pyrimidine-3-carboxamide] |
| 3.2 | C[C@]1(CO)Cc2cc(NC(=O)c3cnn4cccnc34)c(N3CCC(CO)CC3)cc2O1 [Example 129, (R)—N-(2-(Hydroxymethyl)-6-(4-(hydroxymethyl)piperidin-1-yl)-2-methyl-2,3-dihydrobenzofuran-5-yl)pyrazolo[1,5-a]pyrimidine-3-carboxamide] |
